# Activity calls are given as the source filed them.
# Key:
# [1] = Luminescence Cell-Based Dose Response HTS to Identify Activators of Luciferase Translation or Activity in H4 […] Cells. [Related pubchem assays: 1829 (Project Summary), 1814 (Primary HTS)]; format: functional
# [2] = Luminescence Cell-Based Dose Response to Identify Activators of Luciferase Translation or Activity in H4-C Neuroglioblastoma Cells. [Related pubchem assays: 1829 (Project Summary), 1814 (Primary HTS)]; format: functional
# [3] = Luminescence Cell-Based Dose Confirmation to Identify Activators of 5'UTR Stem-Loop Driven Alpha-Synuclein mRNA Translation in H4 Neuroglioblastoma Cells. [Related pubchem assays: 1829 (Project Summary), 1814 (Primary HTS)]; format: functional
# [4] = Luminescence Cell-Based Dose Confirmation HTS to Identify Activators of 5'UTR Stem-Loop Driven Alpha-Synuclein mRNA Translation in H4 Neuroglioblastoma Cells. [Related pubchem assays: 1829 (Project Summary), 1814 (Primary HTS)]; format: functional
# [5] = Luminescence Cell-Based Dose Response to Identify Activators of 5'UTR Stem-Loop Driven Prion Protein mRNA Translation in H4-C Neuroglioblastoma Cells. [Related pubchem assays: 1829 (Project Summary), 1814 (Primary HTS)]; format: functional
# [6] = target: T1, Oxysterols receptor LXR-beta (Homo sapiens, UniProt P55055); format: functional, cell-based;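 also: Cell-based luminescence dose-response assay of agonist activity at LXR, run as a confirmatory counterscreen to a daf-12 agonist screen; HEK293 cells with Gal4-LXR fusion and GAL4-driven luciferase reporter; agonist potency from rising luciferase signal of a Gal4-LXR reporter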
# T1 sequence (P55055 whole entry): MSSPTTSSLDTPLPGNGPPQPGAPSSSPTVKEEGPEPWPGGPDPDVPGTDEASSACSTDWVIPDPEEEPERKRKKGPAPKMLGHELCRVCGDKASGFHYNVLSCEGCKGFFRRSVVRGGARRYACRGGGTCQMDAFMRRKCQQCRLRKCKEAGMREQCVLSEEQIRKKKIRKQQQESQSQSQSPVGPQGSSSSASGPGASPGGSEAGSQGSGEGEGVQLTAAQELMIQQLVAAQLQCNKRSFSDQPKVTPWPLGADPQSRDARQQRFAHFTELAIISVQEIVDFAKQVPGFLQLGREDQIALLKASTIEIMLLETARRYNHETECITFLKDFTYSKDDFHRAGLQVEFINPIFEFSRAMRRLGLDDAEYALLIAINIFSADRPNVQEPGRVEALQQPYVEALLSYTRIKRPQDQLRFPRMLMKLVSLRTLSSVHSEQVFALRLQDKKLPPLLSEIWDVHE
# [7] = cells
# [8] = M. tuberculosis H37Rv growth inhibitors, H37Rv strain (AID 1626); format: functional
# [9] = target: Peroxisome proliferator-activated receptor gamma/Nuclear receptor coactivator 1 (Homo sapiens, UniProt P37231); format: functional;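 also: agonist potency as compounds enhance coactivator SRC-1 recruitment to PPARgamma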
# [10] = target: Peroxisome proliferator-activated receptor gamma/Nuclear receptor coactivator 3 (Homo sapiens, UniProt P37231); format: functional;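 also: agonist potency for raising coactivator recruitment to the receptor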
# [11] = target: T2, Rac GTPase-activating protein 1 (Homo sapiens, UniProt Q9H0H5); assay: blockers of MgcRacGAP-driven Rac1 GTP hydrolysis – biochemical, ADP Hunter fluorescence, primary and confirmatory, confirmation (AID 624330); format: functional
# T2 sequence (Q9H0H5 whole entry): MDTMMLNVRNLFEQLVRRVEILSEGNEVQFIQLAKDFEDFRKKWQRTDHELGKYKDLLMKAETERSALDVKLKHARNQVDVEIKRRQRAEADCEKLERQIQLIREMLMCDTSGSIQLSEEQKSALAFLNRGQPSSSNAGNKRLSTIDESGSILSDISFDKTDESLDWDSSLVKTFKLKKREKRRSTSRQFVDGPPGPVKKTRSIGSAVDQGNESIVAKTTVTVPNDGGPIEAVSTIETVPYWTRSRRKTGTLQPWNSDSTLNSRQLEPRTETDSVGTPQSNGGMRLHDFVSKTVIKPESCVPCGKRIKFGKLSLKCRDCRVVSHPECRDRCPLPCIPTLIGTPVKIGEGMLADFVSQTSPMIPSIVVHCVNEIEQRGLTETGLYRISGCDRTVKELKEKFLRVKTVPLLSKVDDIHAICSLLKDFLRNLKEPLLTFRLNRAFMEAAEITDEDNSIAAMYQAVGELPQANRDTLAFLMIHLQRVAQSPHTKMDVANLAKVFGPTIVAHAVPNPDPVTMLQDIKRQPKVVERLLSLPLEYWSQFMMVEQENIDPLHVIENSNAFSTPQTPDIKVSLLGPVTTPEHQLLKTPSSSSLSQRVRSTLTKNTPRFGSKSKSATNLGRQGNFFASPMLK
# [12] = target: Peroxisome proliferator-activated receptor gamma/Nuclear receptor coactivator 2 (Homo sapiens, UniProt P37231); format: functional;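 also: agonist potency for raising coactivator recruitment to the receptor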
# [13] = IGROV1 cell killing – plate reader, dry powder samples, PAX8 inhibitor project, dose response (AID 743043); format: functional, cell-based; settings: IGROV-1
# [14] = OVCAR8 cell viability loss – plate reader, dry powder samples, PAX8 project, dose response (AID 743197); format: functional, cell-based; settings: OVCAR-8
# [15] = target: Paired box protein Pax-8 (Homo sapiens, UniProt Q06710); assay: PAX8 transcriptional activity inhibition in RMG-I – RMG-I cells, luciferase, cherry-pick, dose response (AID 687027); format: functional, cell-based;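 also: luciferase reporter driven by Pax8 target thyroperoxidase promoter measured by SteadyGlo luminescence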
# [16] = OVCAR-3 cell viability loss – plate reader, dry powder samples, PAX8 inhibitor project, dose response (AID 743044); format: functional, cell-based
# [17] = A2780 cell killing – plate reader, dry powder samples, cytotoxicity control, dose response (AID 743046); format: functional, cell-based
# [18] = toxicity toward immortalized ovarian surface epithelium – cell-based, plate reader, dry powder samples, cytotoxicity control for PAX8 inhibitor project, dose response (AID 743045); format: functional
# [19] = IC50 of insulin release inhibition, rat insulinoma INS-1E line, 5 mM glucose, cell-based (AID 1117331); format: functional
# [20] = target: T3, Aryl hydrocarbon receptor (Homo sapiens, UniProt P35869); assay: Luminescence-based cell-based high throughput dose response assay for activators of the Aryl Hydrocarbon Receptor (AHR). [Related pubchem assays: 2796 (Primary screen (AHR activators in singlicate)), 2845 (Confirmation screen (AHR activators in triplicate)), 434939 (Counterscreen (PXR activators in triplicate)), 2804 (Summary (AHR activators))]; format: ADME
# T3 sequence (P35869 whole entry): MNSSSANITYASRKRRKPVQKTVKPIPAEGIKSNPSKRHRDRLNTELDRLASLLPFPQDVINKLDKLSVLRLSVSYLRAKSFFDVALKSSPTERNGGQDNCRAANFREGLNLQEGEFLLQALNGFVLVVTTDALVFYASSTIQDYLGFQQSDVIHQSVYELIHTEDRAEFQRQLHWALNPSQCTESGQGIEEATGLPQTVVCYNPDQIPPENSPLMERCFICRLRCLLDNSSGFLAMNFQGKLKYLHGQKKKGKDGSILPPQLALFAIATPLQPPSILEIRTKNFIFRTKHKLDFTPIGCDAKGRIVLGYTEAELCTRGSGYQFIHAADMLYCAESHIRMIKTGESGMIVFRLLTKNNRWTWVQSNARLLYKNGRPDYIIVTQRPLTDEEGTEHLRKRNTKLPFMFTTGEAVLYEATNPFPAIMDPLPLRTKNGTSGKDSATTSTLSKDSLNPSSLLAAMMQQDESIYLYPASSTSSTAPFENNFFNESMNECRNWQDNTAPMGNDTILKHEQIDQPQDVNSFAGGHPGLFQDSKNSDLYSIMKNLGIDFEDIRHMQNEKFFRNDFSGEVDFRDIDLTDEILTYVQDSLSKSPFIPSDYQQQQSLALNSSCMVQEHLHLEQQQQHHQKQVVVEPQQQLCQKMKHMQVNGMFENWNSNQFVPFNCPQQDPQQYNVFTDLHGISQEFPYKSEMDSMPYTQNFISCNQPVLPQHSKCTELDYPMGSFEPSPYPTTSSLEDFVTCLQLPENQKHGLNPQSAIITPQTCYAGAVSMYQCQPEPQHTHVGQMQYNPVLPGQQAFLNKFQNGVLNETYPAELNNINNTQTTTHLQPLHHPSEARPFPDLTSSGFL
# [21] = growth inhibition of yeast DHODH-expressing 3D7 parasites – SYBR Green, dry powder samples, dose response (AID 1159570); format: functional, cell-based;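 also: parasite growth measured after 72 hours of compound exposure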
# [22] = toxicity to human hepatoma HepG2 cells – cell-based, cherry-picked samples, cytotoxicity control, dose response (AID 1159577); format: functional
# [23] = Dd2 malaria parasite growth inhibition potency – SYBR Green, dry powder samples, dose response (AID 1159566); format: functional, cell-based;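 also: potency for growth inhibition with lower SYBR green DNA signal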
# [24] = toxicity to human HepG2 hepatoma cells – cell-based, plate reader, dry powder samples, cytotoxicity control, dose response (AID 1159569); format: functional;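 also: inhibitor potency with signal falling toward the positive control level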
# [25] = P. falciparum Dd2 growth inhibitors, dose response, SYBR Green, cherry-picked samples (AID 1159567); format: functional, cell-based
# [26] = growth inhibition of PfATP4-mutant resistant parasites – NITD609-resistant line, SYBR Green, dry powder, dose response (AID 1159571); format: functional, cell-based;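 also: parasites synchronized at ring stage by sorbitol before testing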
# Chain of Paired box protein Pax-8 (Q06710 whole entry): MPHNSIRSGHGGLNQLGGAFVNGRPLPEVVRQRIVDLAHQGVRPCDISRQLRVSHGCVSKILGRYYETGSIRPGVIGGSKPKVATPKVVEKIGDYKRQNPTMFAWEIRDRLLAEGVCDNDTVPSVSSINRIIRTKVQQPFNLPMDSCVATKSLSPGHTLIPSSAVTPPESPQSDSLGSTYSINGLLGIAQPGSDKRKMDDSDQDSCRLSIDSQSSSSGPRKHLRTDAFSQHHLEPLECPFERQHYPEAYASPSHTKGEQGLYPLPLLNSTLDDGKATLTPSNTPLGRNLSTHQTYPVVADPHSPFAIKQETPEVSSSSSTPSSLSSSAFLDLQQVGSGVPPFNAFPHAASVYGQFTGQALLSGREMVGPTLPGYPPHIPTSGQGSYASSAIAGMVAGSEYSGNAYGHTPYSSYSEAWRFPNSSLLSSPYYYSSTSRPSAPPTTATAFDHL
# Chain of Peroxisome proliferator-activated receptor gamma/Nuclear receptor coactivator 3 (P37231 whole entry): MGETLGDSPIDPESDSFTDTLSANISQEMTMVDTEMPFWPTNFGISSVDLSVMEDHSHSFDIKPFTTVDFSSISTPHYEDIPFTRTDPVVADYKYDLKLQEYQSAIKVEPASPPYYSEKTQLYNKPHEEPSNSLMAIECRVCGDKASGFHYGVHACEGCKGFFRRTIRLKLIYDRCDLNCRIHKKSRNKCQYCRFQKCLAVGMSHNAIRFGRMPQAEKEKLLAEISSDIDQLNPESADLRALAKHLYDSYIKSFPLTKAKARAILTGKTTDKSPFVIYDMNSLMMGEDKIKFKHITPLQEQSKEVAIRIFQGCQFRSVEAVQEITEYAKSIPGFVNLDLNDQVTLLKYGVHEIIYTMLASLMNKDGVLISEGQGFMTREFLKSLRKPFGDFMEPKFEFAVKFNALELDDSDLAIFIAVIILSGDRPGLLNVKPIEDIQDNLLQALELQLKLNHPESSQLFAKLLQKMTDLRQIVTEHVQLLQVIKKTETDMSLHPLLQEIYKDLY
# Chain of Peroxisome proliferator-activated receptor gamma/Nuclear receptor coactivator 3 (Q9Y6Q9 whole entry, further chain): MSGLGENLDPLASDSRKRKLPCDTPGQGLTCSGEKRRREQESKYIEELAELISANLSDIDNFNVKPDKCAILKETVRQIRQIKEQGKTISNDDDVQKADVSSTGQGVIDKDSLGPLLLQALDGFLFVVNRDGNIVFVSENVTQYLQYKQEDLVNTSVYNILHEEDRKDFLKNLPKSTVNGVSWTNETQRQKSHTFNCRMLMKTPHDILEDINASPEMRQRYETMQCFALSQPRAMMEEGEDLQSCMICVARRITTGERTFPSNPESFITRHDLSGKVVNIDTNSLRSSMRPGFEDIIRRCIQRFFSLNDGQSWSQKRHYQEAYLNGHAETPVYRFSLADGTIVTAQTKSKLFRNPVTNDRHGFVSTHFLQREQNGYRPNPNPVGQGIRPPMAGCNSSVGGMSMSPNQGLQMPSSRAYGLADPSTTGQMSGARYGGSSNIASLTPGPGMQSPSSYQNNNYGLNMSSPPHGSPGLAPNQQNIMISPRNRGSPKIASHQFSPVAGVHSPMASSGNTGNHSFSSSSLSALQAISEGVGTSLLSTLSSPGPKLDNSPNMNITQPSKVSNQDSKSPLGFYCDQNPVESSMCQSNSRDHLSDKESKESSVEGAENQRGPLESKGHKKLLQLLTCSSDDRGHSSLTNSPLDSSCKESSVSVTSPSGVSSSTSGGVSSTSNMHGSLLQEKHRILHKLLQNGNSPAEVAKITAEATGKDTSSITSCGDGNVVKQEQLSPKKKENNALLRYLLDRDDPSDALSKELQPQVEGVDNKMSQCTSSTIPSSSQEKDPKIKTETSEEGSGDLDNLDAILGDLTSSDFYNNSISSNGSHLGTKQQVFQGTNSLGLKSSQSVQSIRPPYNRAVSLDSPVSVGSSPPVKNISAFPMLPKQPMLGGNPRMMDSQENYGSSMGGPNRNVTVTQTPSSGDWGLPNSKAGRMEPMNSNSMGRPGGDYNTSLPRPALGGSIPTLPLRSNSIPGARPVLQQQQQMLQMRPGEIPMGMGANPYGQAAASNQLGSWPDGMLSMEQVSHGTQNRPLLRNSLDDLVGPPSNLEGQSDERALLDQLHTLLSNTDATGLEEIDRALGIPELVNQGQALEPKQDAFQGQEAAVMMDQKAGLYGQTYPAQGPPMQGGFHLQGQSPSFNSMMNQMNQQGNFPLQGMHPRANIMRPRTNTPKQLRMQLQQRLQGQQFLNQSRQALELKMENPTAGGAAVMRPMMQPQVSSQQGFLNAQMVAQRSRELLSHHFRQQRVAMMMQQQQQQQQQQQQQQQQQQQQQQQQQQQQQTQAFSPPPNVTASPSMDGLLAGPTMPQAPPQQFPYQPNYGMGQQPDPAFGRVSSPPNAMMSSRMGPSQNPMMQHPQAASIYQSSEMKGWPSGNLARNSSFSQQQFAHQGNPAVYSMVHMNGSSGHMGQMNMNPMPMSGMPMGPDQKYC
# Chain of Peroxisome proliferator-activated receptor gamma/Nuclear receptor coactivator 1 (P37231 whole entry): as the sequence (P37231 whole entry) above
# Chain of Peroxisome proliferator-activated receptor gamma/Nuclear receptor coactivator 1 (Q15788 whole entry, further chain): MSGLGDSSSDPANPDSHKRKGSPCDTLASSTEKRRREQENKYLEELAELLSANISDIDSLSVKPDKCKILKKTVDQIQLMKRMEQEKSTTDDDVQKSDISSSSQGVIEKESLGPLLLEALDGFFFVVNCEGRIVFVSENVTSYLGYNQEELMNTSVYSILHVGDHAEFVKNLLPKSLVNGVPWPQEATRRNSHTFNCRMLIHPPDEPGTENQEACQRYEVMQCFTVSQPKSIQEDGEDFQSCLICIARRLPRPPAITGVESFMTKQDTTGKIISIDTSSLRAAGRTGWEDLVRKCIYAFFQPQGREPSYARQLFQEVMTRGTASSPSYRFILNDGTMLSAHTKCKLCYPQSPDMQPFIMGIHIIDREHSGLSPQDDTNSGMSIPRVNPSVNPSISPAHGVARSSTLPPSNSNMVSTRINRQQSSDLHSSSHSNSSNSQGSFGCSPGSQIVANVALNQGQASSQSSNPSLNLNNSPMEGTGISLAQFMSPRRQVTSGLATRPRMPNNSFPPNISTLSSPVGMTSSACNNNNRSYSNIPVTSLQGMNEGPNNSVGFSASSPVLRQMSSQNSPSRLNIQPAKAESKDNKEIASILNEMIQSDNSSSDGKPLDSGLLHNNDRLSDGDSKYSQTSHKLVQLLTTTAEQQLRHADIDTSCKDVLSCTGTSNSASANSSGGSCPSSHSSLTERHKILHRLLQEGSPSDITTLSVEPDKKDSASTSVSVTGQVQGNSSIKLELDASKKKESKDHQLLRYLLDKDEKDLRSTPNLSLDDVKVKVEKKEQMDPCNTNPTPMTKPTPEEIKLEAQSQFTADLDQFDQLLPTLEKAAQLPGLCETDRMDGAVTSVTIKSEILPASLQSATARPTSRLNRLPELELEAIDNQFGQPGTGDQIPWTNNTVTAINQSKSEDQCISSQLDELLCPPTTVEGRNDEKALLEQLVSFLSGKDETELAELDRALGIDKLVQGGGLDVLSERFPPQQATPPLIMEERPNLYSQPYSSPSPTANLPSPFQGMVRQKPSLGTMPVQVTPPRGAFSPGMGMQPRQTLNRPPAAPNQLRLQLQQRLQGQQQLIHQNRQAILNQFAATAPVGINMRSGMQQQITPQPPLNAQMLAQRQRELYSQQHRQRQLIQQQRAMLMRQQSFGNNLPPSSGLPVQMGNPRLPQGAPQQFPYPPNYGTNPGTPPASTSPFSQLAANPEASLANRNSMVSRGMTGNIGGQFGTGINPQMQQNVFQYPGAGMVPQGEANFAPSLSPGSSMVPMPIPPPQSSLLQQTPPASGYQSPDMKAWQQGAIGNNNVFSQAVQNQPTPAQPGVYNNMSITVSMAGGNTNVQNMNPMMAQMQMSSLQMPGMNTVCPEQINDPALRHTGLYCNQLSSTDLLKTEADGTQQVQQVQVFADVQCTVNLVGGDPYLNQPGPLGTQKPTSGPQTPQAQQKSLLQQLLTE
structure (smiles),measurement,setting,value
CC(C)(C)CC(=O)Nc1nnc(-c2cccs2)s1,EC50,[1],< 0.1 µM (active)
same,EC50,[2],0.408 µM (active)
same,EC50,[3],0.231 µM (active)
same,EC50,[4],< 0.1 µM (active)
same,EC50,[5],0.335 µM (active)
CCOC(=O)c1sc2nc(-c3ccccc3)ccc2c1N,EC50,[6],> 67.5 µM (inactive)
same,EC50,[7],> 67.5 µM (inactive)
CC(C)c1ccc(NC(=O)COc2ccc(C3SCCS3)cc2)cc1,IC50,[8],> 100 µM (active)
O=C1c2ccccc2C(=O)C1c1ccc(O)cc1,EC50,[9],> 79.4 µM (not active)
same,EC50,[10],> 79.4 µM (not active)
same,IC50,[11],172 µM (active)
same,EC50,[12],> 79.4 µM (not active)
C/C(=N\c1ccc(C)cc1)c1sc2ccccc2c1O,EC50,[6],> 67.5 µM (inactive)
same,EC50,[7],> 67.5 µM (inactive)
C[C@H](CO)N1C[C@H](C)[C@@H](CN(C)Cc2ccccc2)OCCCC[C@H](C)Oc2ccc(NC(=O)Nc3ccc(C(F)(F)F)cc3)cc2C1=O,AC50,[13],22.4 µM (active)
same,AC50,[14],25.2 µM (active)
same,AC50,[15],13.5 µM (active)
same,AC50,[16],16.7 µM (active)
same,AC50,[17],36.2 µM (active)
same,AC50,[18],39.8 µM (active)
CCO[C@H](Cc1ccc(OCCc2ccc(OS(C)(=O)=O)cc2)cc1)C(=O)O,IC50,[19],> 33.3 µM (inactive)
Cc1cc(O)nc(N/N=C/c2ccc(Br)s2)n1,EC50,[20],8.5 µM (active)
OC[C@H]1[C@@H](c2ccc(-c3ccc(F)cc3)cc2)[C@@H]2CN(CCC(F)(F)F)CCCCN12,AC50,[21],1.21 µM (active)
same,AC50,[22],20.5 µM (active)
same,AC50,[23],0.518 µM (active)
same,AC50,[24],17 µM (active)
same,AC50,[25],0.726 µM (active)
same,AC50,[26],1.1 µM (active)
N#Cc1ccc(-c2ccc([C@@H]3[C@@H]4CN(C(=O)C5CCCCC5)C[C@H]3N4)cc2)cc1,AC50,[21],2.4 µM (active)
same,AC50,[23],1.34 µM (active)
same,AC50,[24],23.8 µM (active)
same,AC50,[25],2.79 µM (active)
same,AC50,[26],2.85 µM (active)
